Results as given in US20230172204A1 (BASF SE, priority 2020, published 2023).

How the values were obtained:
[1] = system: Phakopsora pachyrhizi (F129L); assay: Protective control of soybean rust on soybeans (PHAKPA P2); type: in vivo; settings: soybean rust F129L; for % PHAKPA (F129L) Disease level P2 at 4 ppm: protective P2, 4 ppm; for % PHAKPA (F129L) Disease level P2 at 16 ppm: protective P2, 16 ppm
[2] = system: Phakopsora pachyrhizi (F129L); assay: Protective control of soybean rust on soybeans (PHAKPA P6); type: in vivo; settings: soybean rust F129L; for % PHAKPA (F129L) Disease level P6 at 4 ppm: protective P6, 4 ppm; for % PHAKPA (F129L) Disease level P6 at 16 ppm: protective P6, 16 ppm

| Compound | % PHAKPA (F129L) Disease level P2 at 4 ppm [1] | % PHAKPA (F129L) Disease level P2 at 16 ppm [1] | % PHAKPA (F129L) Disease level P6 at 4 ppm [2] | % PHAKPA (F129L) Disease level P6 at 16 ppm [2] |
| --- | --- | --- | --- | --- |
| CCc1ccccc1/C(C)=N/OCc1c(C)cccc1/C(=N\OC)C(=O)NC [compound 176] | 100% | 100% | 100% | 90% |
| CO/N=C(/C(=O)OC)c1cccc(C)c1CO/N=C(\C)c1cccc(F)c1F [compound 177] | 100% | 21% | 87% | 47% |
| CNC(=O)/C(=N/OC)c1cccc(C)c1CO/N=C(\C)c1cccc(F)c1F [compound 178] | 6% | 0% | 2% | 0% |
| CNC(=O)/C(=N/OC)c1cccc(C)c1CO/N=C(\C)c1ccc(C(C)=O)cc1 [compound 179] | 100% | 47% | 90% | 28% |
| CO/N=C(/C(=O)OC)c1cccc(C)c1CO/N=C(\C)c1cc(C(F)(F)F)cc(F)c1F [compound 180] | 40% | 7% | 5% | 0% |
| CNC(=O)/C(=N/OC)c1cccc(C)c1CO/N=C(\C)c1ccc(/C(C)=N/OC)cc1 [compound 182] | 6% | 0% | 13% | 0% |
| CCc1ccc(/C(C)=N/OCc2c(C)cccc2/C(=N\OC)C(=O)OC)cc1 [compound 183] | 16% | 0% | 38% | 2% |
| CNC(=O)/C(=N/OC)c1cccc(C)c1CO/N=C(\C)c1ccccc1OC(F)(F)F [compound 184] | 42% | 4% | 16% | 1% |
| CNC(=O)/C(=N/OC)c1cccc(C)c1CO/N=C(\C)c1cc(C(F)(F)F)ccc1C1CC1 [compound 185] | 100% | 67% | 90% | 77% |
| CNC(=O)/C(=N/OC)c1cccc(C)c1CO/N=C(\COC)c1cccc(C(F)(F)F)c1 [compound 186] | 1% | 0% | 2% | 0% |
| CO/N=C(/C)c1ccccc1/C(C)=N/OCc1c(C)cccc1/C(=N\OC)C(=O)OC [compound 187] | 100% | 100% | 90% | 90% |
| CC/C(=N\OCc1c(C)cccc1/C(=N\OC)C(=O)NC)c1ccccc1C(F)(F)F [compound 189] | 82% | 28% | 97% | 37% |
| CNC(=O)/C(=N/OC)c1cccc(C)c1CO/N=C(\C)c1cc(C(F)(F)F)ccc1Cl [compound 190] | 20% | 0% | 45% | 3% |
| COC/C(=N\OCc1c(C)cccc1/C(=N\OC)C(=O)OC)c1cccc(C(F)(F)F)c1 [compound 191] | 77% | 2% | 83% | 22% |
| C#Cc1cc(C#C)cc(/C(C)=N/OCc2c(C)cccc2/C(=N\OC)C(=O)NC)c1 [compound 193] | 15% | 0% | 14% | 0% |
| C#Cc1ccc(/C(C)=N/OCc2c(C)cccc2/C(=N\OC)C(=O)NC)cc1 [compound 196] | 1% | 0% | 11% | 5% |
| CNC(=O)/C(=N/OC)c1cccc(C)c1CO/N=C(\C)c1cc(C(F)(F)F)cc(F)c1F [compound 197] | 0% | 0% | 2% | 0% |
| CO/N=C(/C(=O)OC)c1cccc(C)c1CO/N=C(\C)c1cc(C(F)(F)F)ccc1F [compound 198] | 4% | 1% | 0% | 0% |

| Compound | % PHAKPA (F129L) Disease level P2 at 4 ppm [1] | % PHAKPA (F129L) Disease level P2 at 16 ppm [1] | % PHAKPA (F129L) Disease level P6 at 4 ppm [2] | % PHAKPA (F129L) Disease level P6 at 16 ppm [2] |
| --- | --- | --- | --- | --- |
| CNC(=O)/C(=N/OC)c1cccc(C)c1CO/N=C(\C)c1cc(C(F)(F)F)ccc1F [compound 199] | 0% | 0% | 0% | 0% |
| CO/N=C(/C(=O)OC)c1cccc(C)c1CO/N=C(\C)c1cc(C(F)(F)F)ccc1Cl [compound 200] | 93% | 73% | 100% | 77% |
| CNC(=O)/C(=N/OC)c1cccc(C)c1CO/N=C(\C)c1c(F)cccc1OC(F)F [compound 202] | 90% | 22% | 100% | 47% |
| CO/N=C(/C(=O)OC)c1cccc(C)c1CO/N=C(\C)c1cc(C)ccc1C [compound 203] | 87% | 32% | 93% | 32% |
| CC/C(=N\OCc1c(C)cccc1/C(=N\OC)C(=O)OC)c1cccc(C(F)(F)F)c1 [compound 204] | 50% | 4% | 80% | 5% |
| CO/N=C(/C(=O)OC)c1cccc(C)c1CO/N=C(/c1cccc(C(F)(F)F)c1)C(C)C [compound 206] | 100% | 67% | 100% | 90% |
| CNC(=O)/C(=N/OC)c1cccc(C)c1CO/N=C(/c1cccc(C(F)(F)F)c1)C(C)C [compound 207] | 40% | 11% | 83% | 5% |
| C=Cc1ccccc1/C(C)=N/OCc1c(C)cccc1/C(=N\OC)C(=O)NC [compound 211] | 100% | 43% | 100% | 77% |
| CO/N=C(/C(=O)OC)c1cccc(C)c1CO/N=C(\C)c1c(F)cccc1F [compound 213] | 50% | 3% | 40% | 11% |
| CNC(=O)/C(=N/OC)c1cccc(C)c1CO/N=C(\C)c1c(F)cccc1F [compound 214] | 14% | 0% | 28% | 4% |
| CO/N=C(/C(=O)OC)c1cccc(C)c1CO/N=C(\CC1CC1)c1cccc(C(F)(F)F)c1 [compound 215] | 87% | 37% | 87% | 33% |
| CO/N=C(/C(=O)OC)c1cccc(C)c1CO/N=C(\C)c1ccccc1C1CC1 [compound 217] | 97% | 53% | 93% | 100% |
| CO/N=C(/C(=O)OC)c1cccc(C)c1CO/N=C(\C)c1ccccc1C(C)C [compound 218] | 100% | 87% | 100% | 100% |
| CNC(=O)/C(=N/OC)c1cccc(C)c1CO/N=C(\C)c1ccccc1C1CC1 [compound 219] | 60% | 8% | 87% | 43% |
| CNC(=O)/C(=N/OC)c1cccc(C)c1CO/N=C(\C)c1ccccc1C(C)C [compound 220] | 90% | 30% | 100% | 77% |
| CNC(=O)/C(=N/OC)c1cccc(C)c1CO/N=C(\C)c1ccccc1CC(C)C [compound 221] | 100% | 63% | 100% | 100% |
| CO/N=C(/C(=O)OC)c1cccc(C)c1CO/N=C(\C)c1ccccc1CC(F)(F)F [compound 222] | 100% | 57% | 100% | 93% |
| CNC(=O)/C(=N/OC)c1cccc(C)c1CO/N=C(\C)c1ccccc1CC(F)(F)F [compound 223] | 4% | 0% | 28% | 0% |
